Experimental findings from PMC3961306, “Comparison of the Cancer Gene Targeting and Biochemical Selectivities of All Targeted Kinase Inhibitors Approved for Clinical Use” (PLoS ONE, 2014) are described below.

Molecules are shown by their SMILES.

Common to all, as to assay: Kinase profiling in a biochemical assay panel (mobility shift assays and ELISA), %-inhibition at 1 μM; selectivity entropy
On the technique in general: An ELISA detects its analyte on a solid surface through an enzyme-linked reagent.

In experiment [1] the target is T1, panel of more than 300 wild-type and mutant kinases (313 kinase panel) (Homo sapiens, UniProt P43403).
T1 sequence (P43403 1-619): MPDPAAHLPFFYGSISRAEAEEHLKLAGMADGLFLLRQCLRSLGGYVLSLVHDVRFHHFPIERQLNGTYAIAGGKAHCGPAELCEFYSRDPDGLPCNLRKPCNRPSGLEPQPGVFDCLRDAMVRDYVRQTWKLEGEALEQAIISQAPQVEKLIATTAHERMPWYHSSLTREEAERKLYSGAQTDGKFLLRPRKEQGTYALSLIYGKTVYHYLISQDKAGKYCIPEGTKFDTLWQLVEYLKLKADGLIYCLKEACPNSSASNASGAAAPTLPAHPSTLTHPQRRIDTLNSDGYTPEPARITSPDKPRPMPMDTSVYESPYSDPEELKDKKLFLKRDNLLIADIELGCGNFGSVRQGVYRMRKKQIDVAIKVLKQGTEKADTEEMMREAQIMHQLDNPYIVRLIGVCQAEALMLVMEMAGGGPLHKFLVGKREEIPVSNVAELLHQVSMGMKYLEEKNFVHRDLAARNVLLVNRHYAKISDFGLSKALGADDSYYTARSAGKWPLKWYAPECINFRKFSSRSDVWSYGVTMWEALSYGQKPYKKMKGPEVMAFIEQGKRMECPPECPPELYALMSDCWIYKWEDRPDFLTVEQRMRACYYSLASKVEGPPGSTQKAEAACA
The settings on record: kinase ZAP70; compound at 1 μM.

The target of experiment [2] is panel of more than 300 wild-type and mutant kinases (313 kinase panel) (Homo sapiens, UniProt Q9P1W9). Particulars: kinase PIM2; 1 μM.
Experiment [3] concerns the target T2, panel of more than 300 wild-type and mutant kinases (313 kinase panel) (Homo sapiens, UniProt P51813).
T2 sequence (P51813 1-675): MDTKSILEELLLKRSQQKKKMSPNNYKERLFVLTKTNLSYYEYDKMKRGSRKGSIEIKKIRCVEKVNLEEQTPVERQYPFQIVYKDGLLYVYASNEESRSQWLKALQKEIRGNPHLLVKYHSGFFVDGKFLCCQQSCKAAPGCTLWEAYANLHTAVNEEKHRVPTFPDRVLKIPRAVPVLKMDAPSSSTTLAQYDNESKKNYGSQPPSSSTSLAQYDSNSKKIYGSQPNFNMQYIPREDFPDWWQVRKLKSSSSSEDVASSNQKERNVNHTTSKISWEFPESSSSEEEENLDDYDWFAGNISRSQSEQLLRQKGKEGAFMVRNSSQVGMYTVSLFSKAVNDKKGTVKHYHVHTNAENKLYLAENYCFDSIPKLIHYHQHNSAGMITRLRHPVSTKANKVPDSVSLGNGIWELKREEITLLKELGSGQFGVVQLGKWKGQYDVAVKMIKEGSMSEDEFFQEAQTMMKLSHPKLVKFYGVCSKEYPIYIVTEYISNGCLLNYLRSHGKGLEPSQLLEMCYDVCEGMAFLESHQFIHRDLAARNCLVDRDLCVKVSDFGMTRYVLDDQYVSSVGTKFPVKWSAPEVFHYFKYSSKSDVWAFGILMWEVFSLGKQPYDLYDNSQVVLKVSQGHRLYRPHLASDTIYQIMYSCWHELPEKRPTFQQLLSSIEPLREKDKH
Particulars: kinase BMX; 1 μM compound.

Experiment [4] deals with panel of more than 300 wild-type and mutant kinases (313 kinase panel) (Homo sapiens, UniProt Q96RG2). Particulars: kinase PASK; 1 μM.
panel of more than 300 wild-type and mutant kinases (313 kinase panel) (Homo sapiens, UniProt Q96RG2), sequence (Q96RG2 whole entry, change not shown): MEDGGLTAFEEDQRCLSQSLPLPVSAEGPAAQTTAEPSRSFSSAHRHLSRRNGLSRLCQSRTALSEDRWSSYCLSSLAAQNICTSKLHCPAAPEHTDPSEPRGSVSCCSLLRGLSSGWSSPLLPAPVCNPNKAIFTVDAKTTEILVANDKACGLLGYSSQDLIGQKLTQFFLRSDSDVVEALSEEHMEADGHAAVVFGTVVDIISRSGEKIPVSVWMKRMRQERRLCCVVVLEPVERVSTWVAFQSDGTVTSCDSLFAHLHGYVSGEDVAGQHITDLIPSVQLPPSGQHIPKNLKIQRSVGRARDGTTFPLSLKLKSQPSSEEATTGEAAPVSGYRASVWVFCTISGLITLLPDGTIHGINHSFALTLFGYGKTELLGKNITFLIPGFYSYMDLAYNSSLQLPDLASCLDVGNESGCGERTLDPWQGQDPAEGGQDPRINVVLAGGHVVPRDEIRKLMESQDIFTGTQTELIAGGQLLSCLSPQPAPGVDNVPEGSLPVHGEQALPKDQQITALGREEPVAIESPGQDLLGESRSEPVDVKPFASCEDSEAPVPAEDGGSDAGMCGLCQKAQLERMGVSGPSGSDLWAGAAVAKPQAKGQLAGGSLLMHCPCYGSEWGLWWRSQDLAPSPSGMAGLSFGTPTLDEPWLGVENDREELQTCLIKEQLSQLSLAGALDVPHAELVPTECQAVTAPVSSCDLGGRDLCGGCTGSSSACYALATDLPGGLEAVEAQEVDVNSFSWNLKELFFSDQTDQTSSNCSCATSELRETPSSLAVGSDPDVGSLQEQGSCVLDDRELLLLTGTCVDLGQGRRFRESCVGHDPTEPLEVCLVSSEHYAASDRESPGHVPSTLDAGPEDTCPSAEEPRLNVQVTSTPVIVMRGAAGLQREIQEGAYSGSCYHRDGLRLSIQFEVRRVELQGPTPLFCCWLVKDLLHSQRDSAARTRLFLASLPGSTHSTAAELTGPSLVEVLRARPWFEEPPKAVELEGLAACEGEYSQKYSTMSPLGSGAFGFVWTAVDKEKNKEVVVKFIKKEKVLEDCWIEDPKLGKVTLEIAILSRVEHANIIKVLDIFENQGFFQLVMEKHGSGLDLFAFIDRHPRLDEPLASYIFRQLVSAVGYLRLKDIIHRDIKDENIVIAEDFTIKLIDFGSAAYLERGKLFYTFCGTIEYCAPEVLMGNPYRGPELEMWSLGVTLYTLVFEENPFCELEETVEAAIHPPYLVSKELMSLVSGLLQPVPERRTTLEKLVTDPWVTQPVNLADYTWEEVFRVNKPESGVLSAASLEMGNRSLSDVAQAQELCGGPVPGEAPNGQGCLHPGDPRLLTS
Experiment [5] addresses T3, panel of more than 300 wild-type and mutant kinases (313 kinase panel) (Homo sapiens, UniProt Q8TD19).
T3 sequence (Q8TD19 1-979): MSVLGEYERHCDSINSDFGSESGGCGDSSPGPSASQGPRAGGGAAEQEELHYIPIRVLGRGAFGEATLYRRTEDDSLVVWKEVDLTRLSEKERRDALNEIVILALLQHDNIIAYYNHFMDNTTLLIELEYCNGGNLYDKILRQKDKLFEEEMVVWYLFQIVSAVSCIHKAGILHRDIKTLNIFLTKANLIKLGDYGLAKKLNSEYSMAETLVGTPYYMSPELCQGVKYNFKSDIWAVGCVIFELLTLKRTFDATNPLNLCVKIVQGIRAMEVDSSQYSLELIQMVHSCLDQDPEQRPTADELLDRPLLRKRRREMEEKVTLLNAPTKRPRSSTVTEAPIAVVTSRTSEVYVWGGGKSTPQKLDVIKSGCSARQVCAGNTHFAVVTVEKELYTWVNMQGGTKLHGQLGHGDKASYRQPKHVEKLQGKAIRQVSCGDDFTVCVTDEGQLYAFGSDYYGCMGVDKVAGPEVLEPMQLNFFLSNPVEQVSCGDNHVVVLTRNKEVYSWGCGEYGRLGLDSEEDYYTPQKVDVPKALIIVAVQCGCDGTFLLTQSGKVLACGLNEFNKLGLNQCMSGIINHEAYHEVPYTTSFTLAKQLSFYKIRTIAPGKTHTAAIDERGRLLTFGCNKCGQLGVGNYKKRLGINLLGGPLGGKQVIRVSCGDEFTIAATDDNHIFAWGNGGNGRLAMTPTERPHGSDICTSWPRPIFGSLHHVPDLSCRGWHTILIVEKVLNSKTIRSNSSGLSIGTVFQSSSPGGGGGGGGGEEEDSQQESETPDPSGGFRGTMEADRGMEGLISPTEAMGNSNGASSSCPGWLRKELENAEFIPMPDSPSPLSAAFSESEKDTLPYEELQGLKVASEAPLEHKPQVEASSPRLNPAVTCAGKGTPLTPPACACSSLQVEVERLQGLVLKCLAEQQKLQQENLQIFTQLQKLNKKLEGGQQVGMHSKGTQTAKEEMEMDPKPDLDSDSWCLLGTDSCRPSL
Particulars: kinase NEK9; 1 μM.

For the compound `CCCS(=O)(=O)Nc1ccc(F)c(C(=O)c2c[nH]c3ncc(-c4ccc(Cl)cc4)cc23)c1F` [vemurafenib], the “%-inhibition of ZAP70” value in experiment [1] turned out to be 6%. The “%-inhibition of PIM2” value in experiment [2] is -2%. For the same compound, in experiment [3], the “%-inhibition, BMX” value came to 24%. Also, the “%-inhibition of PASK” value in experiment [4] was 2.35%. The “%-inhibition of NEK9” value in experiment [5] was -2.2%.
